According to PMC3234597, “Two Panels of Steroid Receptor Luciferase Reporter Cell Lines for Compound Profiling” (Combinatorial Chemistry & High Throughput Screening, 2011):
Where two headings read alike, the source gives them in different places.

How the values were obtained:
Assay type in all cases: cell-based
[1] = molecular target: T1, ERα^wt-LBD fused to Gal4-DBD (Homo sapiens, UniProt P03372); experiment: U2OS-ERα^wt-LBD/9xGal4UAS luciferase reporter cell line
T1 construct: ERα-LBD (amino acids 303-595) based on GenBank NM_000125; expressed in transfected cells; host or cells: U2OS
T1 sequence (P03372 303-595): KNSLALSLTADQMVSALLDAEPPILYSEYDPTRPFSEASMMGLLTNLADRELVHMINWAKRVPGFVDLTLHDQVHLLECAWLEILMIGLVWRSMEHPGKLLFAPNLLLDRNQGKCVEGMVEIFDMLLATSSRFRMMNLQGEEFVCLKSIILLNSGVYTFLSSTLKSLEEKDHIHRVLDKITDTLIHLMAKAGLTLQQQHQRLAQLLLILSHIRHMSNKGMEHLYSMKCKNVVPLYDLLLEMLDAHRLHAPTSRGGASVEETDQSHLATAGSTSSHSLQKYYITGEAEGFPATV

[2] = molecular target: T2, human AR (full-length) (Homo sapiens, UniProt P10275); experiment: U2OS-AR/3xGRE luciferase reporter cell line (full-length receptor); details: for Log EC50: agonist mode, 20 h, log10 of molar EC50, mean ± SEM; for Log EC50 / Log IC50: AR/3xGRE; for Log IC50: antagonist mode, in the presence of 0.05 nM dihydrotestosterone, log10 of molar IC50, mean ± SEM
T2 construct: expression vectors encoding full-length steroid receptors: pcDNA3-hAR and pcDNA3-hGR; host or cells: U2OS
T2 sequence (P10275 1-920): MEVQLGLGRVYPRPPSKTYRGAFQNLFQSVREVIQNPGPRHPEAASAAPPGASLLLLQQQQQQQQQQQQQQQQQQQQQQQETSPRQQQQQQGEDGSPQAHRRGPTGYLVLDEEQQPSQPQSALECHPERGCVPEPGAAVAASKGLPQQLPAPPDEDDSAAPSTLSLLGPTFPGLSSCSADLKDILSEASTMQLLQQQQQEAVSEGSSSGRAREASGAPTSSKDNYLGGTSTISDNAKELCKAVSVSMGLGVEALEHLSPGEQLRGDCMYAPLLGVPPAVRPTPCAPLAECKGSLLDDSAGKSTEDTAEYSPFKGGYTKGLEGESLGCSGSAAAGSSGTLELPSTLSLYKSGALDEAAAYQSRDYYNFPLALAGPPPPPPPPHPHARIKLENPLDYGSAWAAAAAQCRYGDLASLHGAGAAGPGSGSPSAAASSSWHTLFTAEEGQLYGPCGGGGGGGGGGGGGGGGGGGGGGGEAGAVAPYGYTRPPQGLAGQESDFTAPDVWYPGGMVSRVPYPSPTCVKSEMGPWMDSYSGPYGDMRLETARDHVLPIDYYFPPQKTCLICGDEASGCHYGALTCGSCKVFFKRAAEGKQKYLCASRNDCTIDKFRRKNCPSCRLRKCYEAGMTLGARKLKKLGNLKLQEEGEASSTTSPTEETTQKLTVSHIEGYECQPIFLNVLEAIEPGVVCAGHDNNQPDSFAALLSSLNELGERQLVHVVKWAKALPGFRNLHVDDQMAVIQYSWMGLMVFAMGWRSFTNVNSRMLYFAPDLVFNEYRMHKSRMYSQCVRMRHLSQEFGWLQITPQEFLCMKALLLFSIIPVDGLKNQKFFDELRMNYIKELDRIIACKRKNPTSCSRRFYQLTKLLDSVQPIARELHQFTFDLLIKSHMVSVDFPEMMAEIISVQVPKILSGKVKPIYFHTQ

[3] = molecular target: T3, human GR (full-length) (Homo sapiens, UniProt P04150); experiment: U2OS-GR/3xGRE luciferase reporter cell line (full-length receptor); details: for Log EC50: agonist mode, 20 h, log10 of molar EC50, mean ± SEM; for Log EC50 / Log IC50: GR/3xGRE; for Log IC50: antagonist mode, in the presence of 5 nM dexamethasone, log10 of molar IC50, mean ± SEM
T3 construct: expression vectors encoding full-length steroid receptors: pcDNA3-hAR and pcDNA3-hGR; host or cells: U2OS
T3 sequence (P04150 1-777): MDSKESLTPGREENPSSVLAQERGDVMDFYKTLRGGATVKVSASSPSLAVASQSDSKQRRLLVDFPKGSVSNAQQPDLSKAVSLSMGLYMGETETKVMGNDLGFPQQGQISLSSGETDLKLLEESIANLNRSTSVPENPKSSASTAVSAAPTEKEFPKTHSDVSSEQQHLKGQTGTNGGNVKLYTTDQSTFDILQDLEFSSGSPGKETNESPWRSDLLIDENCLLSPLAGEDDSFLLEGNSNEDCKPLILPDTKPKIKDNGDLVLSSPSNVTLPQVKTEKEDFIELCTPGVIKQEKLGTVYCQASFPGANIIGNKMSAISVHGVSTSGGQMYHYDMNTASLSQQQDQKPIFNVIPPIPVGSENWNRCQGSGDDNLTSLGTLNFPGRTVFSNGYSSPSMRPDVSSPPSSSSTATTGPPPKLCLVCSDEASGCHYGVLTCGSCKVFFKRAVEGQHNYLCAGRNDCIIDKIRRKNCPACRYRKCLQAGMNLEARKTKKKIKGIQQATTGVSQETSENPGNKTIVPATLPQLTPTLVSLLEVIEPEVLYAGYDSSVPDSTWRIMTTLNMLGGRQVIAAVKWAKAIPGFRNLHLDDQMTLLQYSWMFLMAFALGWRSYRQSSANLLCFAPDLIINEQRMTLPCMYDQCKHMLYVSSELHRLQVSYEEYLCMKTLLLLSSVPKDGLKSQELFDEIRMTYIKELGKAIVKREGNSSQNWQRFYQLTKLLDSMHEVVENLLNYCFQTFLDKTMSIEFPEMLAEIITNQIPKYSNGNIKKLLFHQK

Row | Structure (SMILES) | EC50 [1] [µM] | EC50 [2] [µM] | EC50 ([3]; read-out: Log EC50 (converted)) [µM] | also measured
1 | CCCc1c(-c2ccc(O)cc2)nn(-c2ccc(O)cc2)c1-c1ccc(O)cc1 [PPT, propyl pyrazole triol] | 0.0024 | > 10 | > 10 | 
2 | C[C@]12CC[C@@H]3c4ccc(O)cc4C[C@@H](CCCCCCCCC[S+]([O-])CCCC(F)(F)C(F)(F)F)[C@H]3[C@@H]1CC[C@@H]2O (stereo partly drawn) [ICI 182.780] |  |  |  | Log EC50 [2]: > -5.00 M; Log IC50 [2]: > -5.00 M; Log EC50 [3]: > -5.00 M; Log IC50 [3]: > -5.00 M
3 | C#C[C@]1(O)CC[C@H]2[C@@H]3CCC4=Cc5oncc5C[C@]4(C)[C@H]3CC[C@@]21C [Danazol, danazol] | 0.245 |  | > 10 | 
4 | C[C@H]1C[C@H]2[C@@H]3CCC4=CC(=O)C=C[C@]4(C)[C@@]3(Cl)[C@@H](O)C[C@]2(C)[C@@]1(O)C(=O)CO [Beclomethasone, beclomethasone] |  |  |  | Log EC50 ([1]; agonist mode, ERα^wt-LBD/9xGal4UAS, 20 h, log10 of molar EC50, mean ± SEM): > -5.00 M; Log IC50 ([1]; antagonist mode, ERα^wt-LBD/9xGal4UAS, in the presence of 1 nM E2, log10 of molar IC50, mean ± SEM): > -5.00 M
5 | C[C@]12C[C@H](O)[C@H]3[C@@H](CCC4=CC(=O)CC[C@@]43C)[C@@H]1CC[C@@H]2C(=O)CO [Corticosterone, corticosterone] | > 10 |  | 0.00589 | 
6 | C[C@]12CCC(=O)C=C1CC[C@@H]1[C@@H]2[C@@H](O)C[C@]2(C=O)[C@@H](C(=O)CO)CC[C@@H]12 [Aldosterone, aldosterone] | > 10 | > 10 | 0.0302 | 
7 | CC[C@@H]1Cc2cc(O)ccc2C2=C1c1ccc(O)cc1C[C@H]2CC (relative stereo) [R.R-THC, (R,R)-cis-diethyltetrahydro-2,8-chrysenediol] |  |  |  | Log EC50 [2]: > -5.00 M; Log IC50 [2]: -5.26 ± 0.28 M; Log EC50 [3]: > -5.00 M; Log IC50 [3]: > -5.00 M
8 | CCC(=O)[C@@]1(C)CC[C@H]2[C@@H]3CCC4=CC(=O)CCC4=C3CC[C@@]21C [Promegestone (R5020), promegestone] | > 10 | > 10 | > 3.16 | 
9 | C[C@]12C=CC(=O)C=C1CC[C@H]1[C@@H]3C[C@@H](O)[C@](O)(C(=O)CO)[C@@]3(C)C[C@H](O)[C@@]12F [Triamcinolone, triamcinolone] | > 10 |  | 0.00468 | 
10 | O=c1c(-c2ccc(O)cc2)coc2cc(O)cc(O)c12 [Genistein, genistein] |  | > 10 |  | EC50 [3]: > 10 µM
